US7385103B2, “Animal model, cells, and treatment for malignant melanoma” (Rutgers, the State University, priority 2004, dated 2008)

How the values were obtained:
[1] = tested on: Grm1-mediated ERK1/2 activation; experiment: ERK1/2 phosphorylation in melanoma cells, western blot with phospho-ERK1/2 antibodies; format: cell-based, mouse; details: for phosphorylation of ERK1/2: 10^−5 M
Protocol: To examine whether ERK1/2 were activated after Grm1 activation, cells were treated for the indicated times with the agonist Quisqualate. After treatment, melanoma cells were lysed and the activation of ERK1/2 was determined using antibodies against the phosphorylated forms of ERK1/2.
Melanoma cells lines were transiently transfected with dominant-negative mutants of Grm1 and expression of the Grm1 mutants was analyzed by western blot analysis.
Upon IP3 accumulation in cells, calcium is released from the endoplasmic reticulum to the cytoplasm, allowing these ions to act as second messengers that bind to calmodulin and further activate calcium-calmodulin-dependent kinases that are capable of activating mitogen-activated protein kinases (MAPKS) (Soderling (1999) Trends Biochem. Sci. 24(6):232-6). Accordingly, it was determined whether IP3 accumulation in the tumor cell lines disclosed herein, upon Grm1 agonist treatment, would yield intracellular calcium signaling that could affect ERK activation. Depletion of intracellular calcium in these cells was obtained by chelating extracellular calcium with EGTA, which obligates calcium to exit the cell in order to maintain calcium homeostasis.
PIP2 hydrolysis resulting from Grm1 activation leads to the production of IP3 and DAG. DAG can then activate protein kinase C (PKC). […] Thus, it was determined whether the activation of ERK1/2 by Grm1 is also mediated by PKC in the tumor cell lines disclosed herein.
To have a minimum amount of the natural ligand (glutamate) present in the growth medium, customized glutamine- and glutamate-free RPMI (RPMI-glu) was used (INVITROGEN™, Carlsbad, Calif.). GLUTAMAX™ (INVITROGEN™), a substitute for glutamate and glutamine, was added to the growth medium at a final concentration of 2 mM, and 10% dialyzed fetal calf serum (INVITROGEN™) was used to supplement the medium. For induction with Grm1 agonist, quisqualate, the cells were grown in RPMI-glu for 3-4 days, plated at 3×10^5 cells per 60-mm plate and serum starved overnight. Several concentrations of quisqualate (10^−4 M to 10^−6 M) and several time points (30 seconds to 120 minutes) were tested for optimal induction. For Grm1 antagonist effects, cells were pretreated for 30 minutes with 10^−5 M of LY367385 before agonist treatment. For PKC inhibitor (RO-31-8220) and calcium chelators (EGTA, BAPTA-AM), cells were pretreated for indicated times before agonist challenge.
Proteins were extracted using lysis buffer (50 mM Tris-HCl, 150 mM NaCl, 1 mM EDTA, 1% NP-40, 5% glycerol, and 1 mM dithiothreitol, pH 7.4) and protease inhibitors (Complete protease inhibitor cocktail tablets, Roche Molecular Biochemicals, Indianapolis, Ind.). Protein concentrations were measured using the BIO-RAD® DC Protein Assay kit (Bio-Rad, Hercules, Calif.). Equal amounts of lysates were loaded in each lane in 7.5 or 10% polyacrylamide gels (BIO-RAD®, Hercules, Calif.). Proteins were transferred to nitrocellulose membranes (Osmonics, Minnetonka, Minn.). Ponceau Red staining of membranes, after transfer, was performed to verify equivalent amounts of protein between samples. Anti-PERK, ERK, PhosphoPKC isoforms, PKC isoforms antibodies were obtained from Cell Signaling Technology, Inc. (Beverly, Mass.).

melanoma cell lines = experiment: establishment of melanoma cell lines from amelanotic ear tumors in culture; format: cell-based, mouse
Protocol: To further analyze the signaling events mediated by Grm1 in transformed melanocytes, cell lines derived from ear tumor bearing albino mice (Cohen-Salal, et al. (2001) supra) were generated. Tumors from these mice were sectioned in two halves. Protein extraction was performed on one part of the tumors and western immunoblots were done to verify the ectopic expression of Grm1. The other half of the tumor was used to generate homogeneous in vitro melanoma cell lines by gentle selection of melanocyte cells over keratinocytes and fibroblasts through differential geneticin resistance. Initial efforts to directly establish cell lines on standard culture medium supplemented with geneticin were unsuccessful. […] Based on morphology and growth rate, 10^−5 M quisqualate was sufficient to establish growth in culture. […] Ten cells lines namely LL1A, LL1T, Nu1, Nu2, MMB3A, MMB3T, 4045A, 4045T, 4046T, 4046A, were successfully generated from at least six independent mice tumors. Given that these mouse melanoma cell lines behave very similarly in culture, data presented herein is of representative cell lines. […] Cytoplasmic staining for Grm1 has also been reported in other cellular systems (Tadokoro, et al. (1999) Proc. Natl. Acad. Sci. USA 96:13801-13806). To verify the melanocytic origin of these cells, co-staining of the cells was performed with Tyrp-1. […]

## CC(=O)OCOC(=O)CN(CC(=O)OCOC(C)=O)c1ccccc1OCCOc1ccccc1N(CC(=O)OCOC(C)=O)CC(=O)OCOC(C)=O [BAPTA-AM]
[1]; preincubation 30 minutes prior to agonist challenge, in calcium-free media
  ERK activation by quisqualate: completely abolished
[1]; preincubation 30 minutes prior to agonist challenge, in the presence of extracellular calcium
  ERK activation by quisqualate: dose-dependent decrease in ERK activation

## O=C(O)CN(CCOCCOCCN(CC(=O)O)CC(=O)O)CC(=O)O [EGTA]
[1]; chelating extracellular calcium to deplete intracellular calcium
  ERK activation by quisqualate: time-dependent decrease in ERK activation

## Cc1cc(C(=O)O)ccc1[C@H](N)C(=O)O [LY367385]
[1]; melanoma lines pretreated 30 minutes with antagonist (10^−5 M) before agonist challenge
  activation of ERK1/2 by quisqualate: abrogated

## N[C@@H](Cn1oc(=O)[nH]c1=O)C(=O)O [quisqualate, L-quisqualate]
[1]; after 5 minutes of tumor cell stimulation
  phosphorylation of ERK1/2: increase in the phosphorylation of ERK1/2
[1]; after 15 minutes of stimulation
  phosphorylation of ERK1/2: reduced to background levels
Melanoma cell lines; based on morphology and growth rate
  quisqualate concentration sufficient to establish growth in culture: 10^−5 M
Melanoma cell lines; culture medium supplemented with geneticin
  establishment of melanoma cell lines on addition to culture medium: enabled the establishment of melanoma cell lines

B1: siRNA: siRNA specific for Grm1 nucleic acid, templates SEQ ID NO:3 (top strand) and SEQ ID NO:4 (bottom strand) (nucleic acid)
sense: GATCCCGTGGACGGAGATGTCATCATTTCAAGAGAATGATGACATCTCCGTCCATTTTTTGGAAA
antisense: GCTTTTCCAAAAAATGGACGGAGATGTCATCATTCTCTTGAAATGATGACATCTCCGTCCACGG
modifications: expressed or natural sequence; the letters are possibly those of the target site
[1]; transfected melanoma cells, compared to cells transfected with an unrelated siRNA sequence
  ERK activation by Grm1 agonist: inhibited ERK activation
